Experimental data: US8716478B2, “Boron-containing small molecules” (Anacor Pharmaceuticals, Inc., priority 2010, dated 2014)

Legend:
[1] = system: TNF-α; assay: In vivo TNF-α release in LPS treated mice; set-up: species or system Swiss Webster mice
Protocol: In vivo TNF-α release was measured in Swiss Webster mice, 10/group. Animals were dosed via oral gavage with drug 1% CMC suspension. Thirty minutes later LPS, 1.5 mg/kg was administered by intraperitoneal injection. Ninety minutes later animals were sacrificed, blood was collected by exsangination and serum prepared for analysis. TNF-α concentration was assessed by ELISA, non-drug treated animals had TNF-α levels 1000-3000 pg/mL. 6-(1-Hydroxy-1,3-dihydrobenzo[c][1,2]oxaborol-5-yloxy)-2-(2-isopropoxyethoxy)nicotinonitrile (D140) and 6-(1-hydroxy-1,3-dihydrobenzo[c][1,2]oxaborol-5-yloxy)-2-(4-oxopentyloxy)nicotinonitrile (D141) are disclosed in U.S. patent application Ser. No. 12/399,015, filed Mar. 5, 2009.

[2] = system: Schistosoma mansoni schistosomula; assay: Schistosoma mansoni schistosomula phenotypic screen; settings: First Set
Description: Puerto Rican isolates of S. mansoni using Biomphalaria glabrata snails and golden hamsters as intermediate and definitive hosts, respectively, were maintained and handled in the University of California-San Francisco Sandler Center for Tropical Medicine. Patent B. glabrata snails (6-8 weeks after exposure to 5-10 infectious miracidia) were induced to shed infective larvae (cercariae) under light stimulus into the surrounding water. Cercariae were washed in rounds of ice-cold water and concentrated through and over sieves of varying pore sizes. They were then mechanically sheared (separation of heads from tails) as described in Colley D G, et al. Exp Parasitol 1974, 35:44-51, in ice-cold Incomplete Medium 169 (as described in Basch P F. J Parasitol 1981, 67:179-185, minus FBS and antibiotics) by passing 15 times through a double headed 22-gauge syringe needle connected to two 10 mL syringes. The resulting cercarial heads (schistosomula) were separated from their tails by swirling in a petri dish. Concentrated schistosomula were added to a sterile 1.5 mL centrifuge tube and allowed to settle over ice. Schistosomula were transferred to a sterile environment and washed 4 times in Incomplete Medium 169 prior to plating.
Two sets of screening were performed. In the first set, compounds were screened against schistosomula and observations were made at 24 hours, 2 days, 3 days, 4 days, and 6 days. In the second set, compounds were screened against schistosomula with observations at 24 hours, 2 days, 3 days, and 4 days and adult worms at 7 hours, 24 hours, 4 days, and 6 days.
Plates contain 200 schistosomula/well in […] complete Basch medium and were maintained at 37° C. in a 5% CO2 atmosphere. All compounds were tested in duplicate with at least two experimental replicates. Compounds and control compounds were added to the plates using the Biomek FXp using 96-well disposable tips. Final concentration of DMSO in each well was 0.5%.
A semi-quantitative and controlled nomenclature for phenotypes that can arise as a result of compound insult to both schistosomula and adults was utilized (Abdulla M H, et al., PLoS Negl Trop Dis 2009, 3:e478). Phenotypes were recorded by visual inspection and on a flexible time basis but at least at 24 h and 4 day time-points in the case of large scale screening. […] To help eliminate bias, two screen analysts scored phenotypes ‘blind’ both to knowledge of the contents of each screening plate and the phenotypes scored by his/her colleague. Upon completing their individual assessments, each analyst's ‘hit sheet’ was then compared to derive a ‘consensus hit sheet’. Discrepancies in analysts' hit sheets were re-evaluated under the microscope to eventually make a consensus hit call.
Hyper-coiled and coiled represent a verbal description of the visual phenotype as compared to the DMSO control. The + and ++ and +++ means more of the phenotype which preceded it. The − means less of the phenotype which preceded it. Results

[3] = system: TNF-α in peripheral blood mononuclear cells (PBMCs); assay: TNF-α inhibition in LPS-stimulated peripheral blood mononuclear cells; assay type: cell-based; settings: PBMC; PBMCs, LPS 1 μg/mL for 24 h; read-out: Proinflammatory TNF-α IC50
Protocol: Peripheral blood mononuclear cells (PBMCs) pooled from 10-20 donors were obtained from a local blood bank, ficoll gradient purified, and stored frozen in liquid nitrogen. Cells were thawed and seeded into 96-well plates at 5×10^5 cells/well in RPMI 1640 with 10% heat-inactivated fetal calf serum (MediaTech, Inc, Hearndon, Va., USA), Test articles were evaluated at the indicated concentrations in 150 μL media containing <2% DMSO, final, with stimulant and PBMCs. Cells were stimulated with lipopolysaccharide (LPS, phenol-extract from E. coli, Sigma-Aldrich, St. Louis, Mo.) at 1 μg/mL. Stimulation was with LPS for 24 h to measure TNF-α. Cytokines in supernatants were analyzed with a FACSArray flow cytometer (BD Biosciences, San Jose, Calif., USA) using the BD Cytometric Bead Array (CBA) Flex Set (BD Biosciences). IC50 values were calculated using the four parameter logistic equation.

## COc1ccc(C2CNC(=O)C2)cc1OC1CCCC1 (centres unmarked) [Rolipram]
[1]; Oral Dose 10 mg/kg
  % Inhibition of TNFa Blood Levels in LPS Treated Mice: 8.6%
[1]; Oral Dose 30 mg/kg
  % Inhibition of TNFa Blood Levels in LPS Treated Mice: 62.7%

## COCCN(C)c1nc(Oc2ccc3c(c2)COB3O)ccc1C#N [6-(1-hydroxy-1,3-dihydro-benzo[c][1,2]oxaborol-5-yloxy)-2-[(2-methoxy-ethyl)-methyl-amino]-nicotinonitrile]
[2]
  schistosomula phenotype, 24 h: O+

## CC(C)OC(=O)c1ccc(Oc2ccc3c(c2)COB3O)nc1 [Isopropyl 6-(1-hydroxy-1,3-dihydrobenzo[c][1,2]oxaborol-5-yloxy)nicotinate]
[2]
  schistosomula phenotype, 24 h: O+

## CC(C)OC(=O)c1ccc(Oc2ccc3c(c2)COB3O)c(F)c1 [5-(2-Fluoro-4-isopropyloxycarbonylphenoxy)-1-hydroxy-2,1-benzoxaborole]
[2]
  schistosomula phenotype, day 6: O−, R

## N#Cc1ccc(Oc2ccc3c(c2)COB3O)nc1NCCO [6-(1-hydroxy-1,3-dihydro-benzo[c][1,2]oxaborol-5-yloxy)-2-(2-hydroxy-ethylamino)-nicotinonitrile]
[2]
  schistosomula phenotype, 24 h: O−
  schistosomula phenotype, day 6: O+ R

## N#Cc1ccc(Oc2ccc3c(c2)COB3O)c(OCC2CC2)c1 [3-(Cyclopropylmethoxy)-4-(1-hydroxy-1,3-dihydrobenzo[c][1,2]oxaborol-5-yloxy)benzonitrile]
[2]
  schistosomula phenotype, 24 h: O+
  schistosomula phenotype, day 6: partial D

## N#Cc1ccc(Oc2ccc3c(c2)COB3O)nc1N1CCCC1 [6-(1-Hydroxy-1,3-dihydro-benzo[c][1,2]oxaborol-5-yloxy)-2-pyrrolidin-1-yl-nicotinonitrile]
[2]
  schistosomula phenotype, 24 h: O+

## CCOC(=O)c1ccc(Oc2ccc3c(c2)COB3O)nc1OCC [Ethyl 2-ethoxy-6-(1-hydroxy-1,3-dihydrobenzo[c][1,2]oxaborol-5-yloxy)nicotinate]
[2]
  schistosomula phenotype, 24 h: O+

## N#Cc1ccc(Oc2ccc3c(c2)COB3O)nc1OCC(F)(F)F [6-(1-Hydroxy-1,3-dihydro-benzo[c][1,2]oxaborol-5-yloxy)-2-(2,2,2-trifluoro-ethoxy)-nicotinonitrile]
[2]
  schistosomula phenotype, 24 h: O (overactive)

## CCOC(=O)c1ccc(Oc2ccc3c(c2)COB3O)c(Oc2cc(C#N)ccn2)c1 [5-[4-Ethoxycarbonyl-2-(4-cyanopyridin-2-yloxy)phenoxy]-1,3-dihydro-1-hydroxy-2,1-benzoxaborole]
[2]
  schistosomula phenotype, 24 h: O+

## N#Cc1ccc(Oc2ccc3c(c2)COB3O)nc1OCC(F)F [2-(2,2-Difluoro-ethoxy)-6-(1-hydroxy-1,3-dihydro-benzo[c][1,2]oxaborol-5-yloxy)-nicotinonitrile]
[2]
  schistosomula phenotype, 24 h: O+

## CCOC(=O)c1cnc(Oc2ccc3c(c2)COB3O)c(Cl)c1 [Ethyl 5-chloro-6-(1-hydroxy-1,3-dihydrobenzo[c][1,2]oxaborol-5-yloxy)nicotinate]
[2]
  schistosomula phenotype, 24 h: O++

## CCOc1nc(Oc2ccc3c(c2)COB3O)ccc1C#N [2-Ethoxy-6-(1-hydroxy-1,3-dihydro-benzo[c][1,2]oxaborol-5-yloxy)-nicotinonitrile]
[2]
  schistosomula phenotype, 24 h: O++

## COCCNc1ccc(C#N)c(Oc2ccc3c(c2)COB3O)n1 [2-(1-Hydroxy-1,3-dihydro-benzo[c][1,2]oxaborol-5-yloxy)-6-(2-methoxy-ethylamino)-nicotinonitrile]
[2]
  schistosomula phenotype, 24 h: O+

## CCC(=O)CCCOc1nc(Oc2ccc3c(c2)COB3O)c(Cl)cc1C#N [Compound D234, 5-chloro-6-(1-hydroxy-1,3-dihydrobenzo[c][1,2]oxaborol-5-yloxy)-2-(4-oxohexyloxy)nicotinonitrile]
[3]
  IC50: 2.1 nM

## N#Cc1cc(Cl)c(Oc2ccc3c(c2)COB3O)nc1OCCCC1(O)CC1 [Compound D233, 5-Chloro-6-(1-hydroxy-1,3-dihydrobenzo[c][1,2]oxaborol-5-yloxy)-2-(3-(1-hydroxycyclopropyl)propoxy)nicotinonitrile]
[3]
  IC50: 13 nM

## CN(CCO)c1nc(Oc2ccc3c(c2)COB3O)ccc1C#N [6-(1-Hydroxy-1,3-dihydro-benzo[c][1,2]oxaborol-5-yloxy)-2-[(2-hydroxy-ethyl)-methyl-amino]-nicotinonitrile]
[2]
  schistosomula phenotype, 24 h: O−
  schistosomula phenotype, day 6: R O
[2]; day 3
  schistosomula phenotype, day 3: O−

## CC(C)OCCOc1nc(Oc2ccc3c(c2)C(C)OB3O)c(Cl)cc1C#N (centres unmarked) [Compound D252, 5-Chloro-6-(1-hydroxy-3-methyl-1,3-dihydrobenzo[c][1,2]oxaborol-5-yloxy)-2-(2-isopropoxyethoxy)nicotinonitrile]
[3]
  IC50: 160 nM

## C[C@]12C=CC(=O)C=C1CC[C@@H]1[C@@H]2[C@@H](O)C[C@@]2(C)[C@H]1CC[C@]2(O)C(=O)CO [Prednisolone]
[1]; Oral Dose 0.01 mg/kg
  % Inhibition of TNFa Blood Levels in LPS Treated Mice: 16%
[1]; Oral Dose 0.1 mg/kg
  % Inhibition of TNFa Blood Levels in LPS Treated Mice: 54.3%
[1]; Oral Dose 3 mg/kg
  % Inhibition of TNFa Blood Levels in LPS Treated Mice: 81.6%
[1]; Oral Dose 10 mg/kg
  % Inhibition of TNFa Blood Levels in LPS Treated Mice: 84.5%
[1]; Oral Dose 100 mg/kg
  % Inhibition of TNFa Blood Levels in LPS Treated Mice: 85.9%

## COCCNc1nc(Oc2ccc3c(c2)COB3O)ccc1C#N [6-(1-Hydroxy-1,3-dihydro-benzo[c][1,2]oxaborol-5-yloxy)-2-(2-methoxy-ethylamino)-nicotinonitrile]
[2]
  schistosomula phenotype, 24 h: O−

## CCCOC(=O)c1ccc(Oc2ccc3c(c2)COB3O)nc1 [n-Propyl 6-(1-hydroxy-1,3-dihydrobenzo[c][1,2]oxaborol-5-yloxy)nicotinate]
[2]
  schistosomula phenotype, 24 h: O+

## O=C(Nc1c(Cl)cncc1Cl)c1ccc(OC(F)F)c(OCC2CC2)c1 [Roflumilast]
[1]; Oral Dose 0.3 mg/kg
  % Inhibition of TNFa Blood Levels in LPS Treated Mice: 0%
[1]; Oral Dose 1 mg/kg
  % Inhibition of TNFa Blood Levels in LPS Treated Mice: 24.9%
[1]; Oral Dose 3 mg/kg
  % Inhibition of TNFa Blood Levels in LPS Treated Mice: 52.5%
[1]; Oral Dose 10 mg/kg
  % Inhibition of TNFa Blood Levels in LPS Treated Mice: 71.5%
[1]; Oral Dose 30 mg/kg
  % Inhibition of TNFa Blood Levels in LPS Treated Mice: 73.5%

## CC(C)Oc1nc(Oc2ccc3c(c2)COB3O)ccc1C#N [6-(1-Hydroxy-1,3-dihydro-benzo[c][1,2]oxaborol-5-yloxy)-2-isopropoxy-nicotinonitrile]
[2]
  schistosomula phenotype, 24 h: O+

## N#Cc1cc(Cl)c(Oc2ccc3c(c2)COB3O)nc1OC1CCOCC1 [Compound D240, 5-Chloro-6-(1-hydroxy-1,3-dihydrobenzo[c][1,2]oxaborol-5-yloxy)-2-(tetrahydro-2H-pyran-4-yloxy)nicotinonitrile]
[3]
  IC50: 3.8 nM

## CCCOc1nc(Oc2ccc3c(c2)COB3O)ccc1C#N [6-(1-Hydroxy-1,3-dihydro-benzo[c][1,2]oxaborol-5-yloxy)-2-propoxy-nicotinonitrile]
[2]
  schistosomula phenotype, 24 h: O+

## CC(=O)OCCOc1nc(Oc2ccc3c(c2)COB3O)ccc1C#N [6-(1-Hydroxy-1,3-dihydro-benzo[c][1,2]oxaborol-5-yloxy)-2-(acetyloxyethoxy)-nicotinonitrile]
[2]
  schistosomula phenotype, 24 h: O++

## CC(C)(C)Nc1nc(Oc2ccc3c(c2)COB3O)ccc1C#N [2-tert-butylamino-6-(1-hydroxy-1,3-dihydro-benzo[c][1,2]oxaborol-5-yloxy)-nicotinonitrile]
[2]
  schistosomula phenotype, 24 h: O (overactive)

## CC(=O)NCc1ccc(Oc2ccc3c(c2)COB3O)cc1 [N-[4-(1-Hydroxy-1,3-dihydro-benzo[c][1,2]oxaborol-5-yloxy)-benzyl]-acetamide]
[2]; day 4
  schistosomula phenotype, day 4: D (dead)
